Data as given in patent US6858640B2, “Tricyclic indole compounds having affinity for serotonin receptor” (Shionogi & Co., Ltd., priority 2000, dated 2005).
Counter-ions that a name gives are not always drawn. Like-named read-outs stand apart in the source and are kept apart here.

Tests used:
[1] = biological target: T1, 5HT6 (Homo sapiens, UniProt P50406); experiment: radioligand binding to serotonin receptor, cell membrane sample, Ki by Cheng-Prusoff
T1 construct: expressed in transfected cells; host or cells: HEK293
Method: A mixture of radioactive ligands and some cardinal numbers of test compounds was incubated with a sample of cell membrane, which was prepared from brain of rats or HEK293 cells, which expressed the receptor, under the following conditions. Then, the sample was filtered by suction on a Whatman GF/C. Radioactivity on the filter was encountered by the use of a liquid scintillation counter. 50% Inhibitory concentration values (IC50 values) of each selective binding were calculated for test compounds and the Ki value was obtained by applying an equation of Cheng-Prusoff [Biochem. Pharmacol. 22 (1973) 3099-3108] Ki=IC50/(1+[L]/Kd).

[2] = rat 5-HT6 (HEK293), 8 nM [3H] 5HT 25° C. 120 min or 4 nM [3H] LSD 37° C. 60 min, read-out: Ki value (nM) ±SE 5-HT6

T1 sequence (P50406 whole entry, species assumed): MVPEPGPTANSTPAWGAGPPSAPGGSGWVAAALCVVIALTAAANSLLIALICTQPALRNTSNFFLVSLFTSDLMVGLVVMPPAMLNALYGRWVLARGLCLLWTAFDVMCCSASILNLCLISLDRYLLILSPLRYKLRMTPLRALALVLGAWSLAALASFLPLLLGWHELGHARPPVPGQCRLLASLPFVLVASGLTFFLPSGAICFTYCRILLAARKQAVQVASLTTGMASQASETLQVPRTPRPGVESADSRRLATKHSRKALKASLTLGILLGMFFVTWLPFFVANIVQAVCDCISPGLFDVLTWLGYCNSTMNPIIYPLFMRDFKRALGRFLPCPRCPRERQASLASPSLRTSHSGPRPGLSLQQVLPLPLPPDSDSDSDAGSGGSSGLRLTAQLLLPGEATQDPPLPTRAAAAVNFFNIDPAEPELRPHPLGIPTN

Ki [1, 2] [nM] | Structure (SMILES) | melting point | Ki [1] [nM]
– | N[C@@H]1COc2cccc3[nH]cc(c23)C1 | 202 to 203 °C | –
– | CN(C)C1COc2cccc3c2c(cn3S(=O)(=O)c2cccs2)C1 (stereo not shown) (as salt: oxalate) [Compound 20-9] | 142 to 144 °C (dec.) | –
– | CNC1COc2cccc3c2c(cn3S(=O)(=O)c2ccccc2)C1 (stereo not shown) [Compound 36-2] | – | 8.5
– | CN(C)C1COc2c(C#N)ccc3[nH]cc(c23)C1 (stereo not shown) [Compound 48, 8-Dimethylamino-2,7,8,9-tetrahydro-6-oxa-2-azabenzo[cd]-azulene-5-carbonitrile] | – | 1
– | CN(C)C1COc2cccc3c2c(cn3S(=O)(=O)c2ccccc2Br)C1 (stereo not shown) [Compound 20-13] | – | 3.9
– | CN(C)C1COc2cccc3c2c(cn3S(=O)(=O)c2ccc(C(F)(F)F)cc2)C1 (stereo not shown) (as salt: oxalate) [Compound 20-10] | 119 to 122 °C (dec.) | –
– | CN(C)C1COc2cccc3c2c(cn3S(=O)(=O)c2ccc(Br)cc2)C1 (stereo not shown) (as salt: oxalate) [Compound 20-11] | 147 to 150 °C (dec.) | –
– | CNC1COc2cccc3c2c(cn3S(=O)(=O)c2ccccc2)C1 (stereo not shown) (as salt: oxalate) [Compound 36-2] | 208 to 213 °C (dec.) | –
– | CN(C)C1COc2cccc3c2c(cn3S(=O)(=O)c2ccc(F)cc2F)C1 (stereo not shown) (as salt: oxalate) [Compound 20-22] | 163 to 164 °C (dec.) | –
– | CN(C)C1COc2cccc3c2c(cn3S(=O)(=O)c2ccccc2Br)C1 (stereo not shown) (as salt: oxalate) [Compound 20-13] | 173 to 176 °C (dec.) | –
– | CN(C)C1COc2cccc3c2c(cn3S(=O)(=O)c2cccc(Br)c2)C1 (stereo not shown) [Compound 20-12] | – | 2.7
– | COc1cccc(S(=O)(=O)n2cc3c4c(cccc42)OCC(N(C)C)C3)c1 (stereo not shown) [Compound 20-24] | 103 to 104 °C | 3.2
– | CN(C)C1COc2cccc3c2c(cn3S(=O)(=O)c2ccc(F)cc2)C1 (stereo not shown) (as salt: oxalate) [Compound 20-19] | 143 to 144 °C (dec.) | –
– | CN(C)C1COc2cccc3c2c(cn3S(=O)(=O)c2cccc(Br)c2)C1 (stereo not shown) (as salt: oxalate) [Compound 20-12] | 168 to 171 °C (dec.) | –
9.9 | COc1ccc(OC)c(S(=O)(=O)n2cc3c4c(cccc42)OCC(N(C)C)C3)c1 (stereo not shown) [Compound 20-23] | – | –
36 | CN(C)C1COc2cccc3c2c(cn3S(=O)(=O)c2ccc(-c3ccon3)s2)C1 (stereo not shown) [Compound 20-25] | – | –
– | CN(C)C1COc2cccc3c2c(cn3S(=O)(=O)/C=C/c2ccccc2)C1 (stereo not shown) [Compound 20-16] | – | 22
– | OC1COc2cccc3[nH]cc(c23)C1 (stereo not shown) | 169 to 170 °C | –
– | COc1ccc(S(=O)(=O)n2cc3c4c(cccc42)OCC(N(C)C)C3)cc1 (stereo not shown) [Compound 20-14] | – | 22
– | CN(C)C1COc2cccc3c2c(cn3S(=O)(=O)c2ccc(Br)cc2)C1 (stereo not shown) [Compound 20-11] | – | 5.7
– | CN(C)C1COc2cccc3c2c(cn3S(=O)(=O)c2ccc(F)cc2)C1 (stereo not shown) [Compound 20-19] | – | 12
2.7 | CN(C)C1COc2cccc3c2c(cn3S(=O)(=O)c2ccc(Cl)cc2)C1 (stereo not shown) [Compound 20-6] | – | –

Ki [1, 2] [nM] | Structure (SMILES) | melting point | Ki [1] [nM]
– | CN(C)C1COc2cccc3c2c(cn3S(=O)(=O)c2cc(Cl)ccc2Cl)C1 (stereo not shown) [Compound 20-17] | – | 29
– | CN(C)C1COc2cccc3c2c(cn3S(=O)(=O)/C=C/c2ccccc2)C1 (stereo not shown) (as salt: oxalate) [Compound 20-16] | 169 to 171 °C (dec.) | –
26 | CN(C)C1COc2cccc3c2c(cn3S(=O)(=O)c2ccc(F)cc2F)C1 (stereo not shown) [Compound 20-22] | – | –
29 | COc1ccc(S(=O)(=O)n2cc3c4c(cccc42)OCC(N(C)C)C3)cc1OC (stereo not shown) [Compound 20-15] | – | –
2.7 | CN(C)C1COc2cccc3c2c(cn3S(=O)(=O)c2ccc(Cl)s2)C1 (stereo not shown) [Compound 20-21] | – | –
– | CN(C)C1COc2cccc3c2c(cn3S(=O)(=O)c2cccc3ccccc23)C1 (stereo not shown) [Compound 20-5] | 148 to 149 °C | 0.49
– | c1cc2c3c(c[nH]c3c1)CC1(CO2)OCCO1 | 200 to 202 °C | –
– | COc1ccc(S(=O)(=O)n2cc3c4c(cccc42)OCC(N(C)C)C3)cc1 (stereo not shown) (as salt: oxalate) [Compound 20-14] | 140 to 142 °C (dec.) | –
– | CN(C)C1COc2c(Br)ccc3c2c(cn3S(=O)(=O)c2ccccc2)C1 (stereo not shown) [Compound 20-18] | 89 to 90 °C | 22
– | CN(C)C1COc2cccc3c2c(cn3S(=O)(=O)c2ccc(Cl)s2)C1 (stereo not shown) (as salt: oxalate) [Compound 20-21] | 154 to 156 °C (dec.) | –
– | CN(C)C1COc2cccc3c2c(cn3S(=O)(=O)c2cc(F)c(Br)cc2F)C1 (stereo not shown) (as salt: oxalate) [Compound 20-20] | 128 to 131 °C (dec.) | –
– | CN(C)C1COc2cccc3c2c(cn3S(=O)(=O)c2cc(Cl)ccc2Cl)C1 (stereo not shown) (as salt: oxalate) [Compound 20-17] | 161 to 163 °C (dec.) | –
– | COc1ccc(S(=O)(=O)n2cc3c4c(cccc42)OCC(N(C)C)C3)cc1OC (stereo not shown) (as salt: oxalate) [Compound 20-15] | 123 to 126 °C (dec.) | –
– | CNC1COc2cccc3[nH]cc(c23)C1 (stereo not shown) (as salt: oxalate) [Compound 19-2] | 112 to 116 °C | –
– | CN(C)C1COc2c(C=NO)ccc3[nH]cc(c23)C1 (stereo not shown) [Compound 47, 8-Dimethylamino-2,7,8,9-tetrahydro-6-oxa-2-azabenzo[cd]-azulene-5-carbaldehyde Oxime] | – | 78
– | COc1ccc(OC)c(S(=O)(=O)n2cc3c4c(cccc42)OCC(N(C)C)C3)c1 (stereo not shown) (as salt: oxalate) [Compound 20-23] | 147 to 150 °C (dec.) | –
11 | CN(C)C1COc2cccc3c2c(cn3S(=O)(=O)c2cc(F)c(Br)cc2F)C1 (stereo not shown) [Compound 20-20] | – | –
– | CN(C)C1CC(=O)c2cccc3c2c(cn3S(=O)(=O)c2ccccc2)C1 (stereo not shown) [Compound 20-1, (2-Benzenesulfonyl-2,7,8,9-tetrahydro-6-oxo-2-azabenzo[cd]azulen-8-yl)dimethylamine oxalate] | – | 1.7
– | CN(C)C1COc2cccc3c2c(cn3S(=O)(=O)c2ccc(Cl)cc2)C1 (stereo not shown) (as salt: oxalate) [Compound 20-6] | 114 to 118 °C (dec.) | –
– | CN(C)C1COc2c(C=O)ccc3[nH]cc(c23)C1 (stereo not shown) [Compound 46-1, 8-Dimethylamino-2,7,8,9-tetrahydro-6-oxa-2-azabenzo[cd]-azulene-5-carbaldehyde] | – | 28
– | CN(C)C1COc2cccc3c2c(cn3S(=O)(=O)c2ccc(-c3ccon3)s2)C1 (stereo not shown) (as salt: oxalate) [Compound 20-25] | 113 to 115 °C (dec.) | –
